In the supplement of paper PMC13380429:

What was measured:
Details in all cases: 72 h
[1] = tested on: U2OS; assay: cell viability relative to DMSO; higher = less toxic
[2] = tested on: Caco-2; assay: as above
[3] = tested on: HepG2; assay: as above
[4] = tested on: Calu-3; assay: as above
[5] = tested on: Vero E6; assay: as above
[6] = tested on: U2OS; assay: drug sensitivity score (DSS) for viability; higher = more toxic; extreme values may be limits of the assay
[7] = tested on: Caco-2; assay: as above
[8] = tested on: HepG2; assay: as above
[9] = tested on: Calu-3; assay: as above
[10] = tested on: Vero E6; assay: as above
[11] = tested on: U2OS; assay: relative viability EC50 (midpoint between 100% and the lowest measured viability); higher = less toxic
[12] = tested on: Caco-2; assay: as above
[13] = tested on: HepG2; assay: as above
[14] = tested on: Calu-3; assay: as above
[15] = tested on: Vero E6; assay: as above

SMILES | cell viability ([1]; 1 nM) [%] | cell viability ([1]; 10 nM) [%] | cell viability ([1]; 100 nM) [%] | cell viability ([1]; 1000 nM) [%] | cell viability ([1]; 10000 nM) [%] | cell viability ([2]; 1 nM) [%] | cell viability ([2]; 10 nM) [%] | cell viability ([2]; 100 nM) [%] | cell viability ([2]; 1000 nM) [%] | cell viability ([2]; 10000 nM) [%] | cell viability ([3]; 1 nM) [%] | cell viability ([3]; 10 nM) [%] | cell viability ([3]; 100 nM) [%] | cell viability ([3]; 1000 nM) [%] | cell viability ([3]; 10000 nM) [%] | cell viability ([4]; 1 nM) [%] | cell viability ([4]; 10 nM) [%] | cell viability ([4]; 100 nM) [%] | cell viability ([4]; 1000 nM) [%] | cell viability ([4]; 10000 nM) [%] | cell viability ([5]; 1 nM) [%] | cell viability ([5]; 10 nM) [%] | cell viability ([5]; 100 nM) [%] | cell viability ([5]; 1000 nM) [%] | cell viability ([5]; 10000 nM) [%] | drug sensitivity score [6] | drug sensitivity score [7] | drug sensitivity score [8] | drug sensitivity score [9] | drug sensitivity score [10] | relative viability EC50 [11] [µM] | relative viability EC50 [12] [µM] | relative viability EC50 [13] [µM] | relative viability EC50 [14] [µM] | relative viability EC50 [15] [µM]
COc1ccc(CC2NCCc3cc(OC)c(OC)cc32)cc1OC (stereo not given) [tetrahydropapaverine] | 99.5 | 93.2 | 103 | 90.9 | 96.9 | 99.8 | 99 | 99.5 | 102 | 94.4 | 99.1 | 99.9 | 91.5 | 98.6 | 103 | 95.9 | 86.9 | 99.7 | 83.3 | 98.7 | 94.3 | 99.8 | 95.3 | 98.6 | 104 | 0 | 0 | 0 | 0 | 0 | > 10 | > 10 | > 10 | > 10 | > 10
CN1CCN(CCCN2c3ccccc3Sc3ccc(S(=O)(=O)N(C)C)cc32)CC1 [thioproperazine] | 107 | 97.1 | 104 | 99.7 | 97.9 | 95.7 | 93.3 | 89.6 | 113 | 79 | 108 | 103 | 105 | 99.6 | 92.5 | 98 | 93.5 | 105 | 103 | 90.9 | 99.3 | 95.9 | 94.9 | 85.2 | 90.6 | 0 | 0.4 | 0 | 0 | 0.6 | > 10 | > 10 | > 10 | > 10 | > 10
[Cl][Ti][Cl].c1cc[cH-]c1.c1cc[cH-]c1 [titanocene-dichloride] | 93.2 | 93.1 | 97.5 | 94.6 | 96.1 | 97.7 | 98.2 | 99.2 | 94.6 | 95.8 | 89.6 | 91.9 | 97.2 | 104 | 101 | 99.2 | 97.1 | 112 | 97.1 | 110 | 93.7 | 95.2 | 93.4 | 98.9 | 105 | 0 | 0 | 0 | 0 | 0 | > 10 | > 10 | > 10 | > 10 | > 10
Cc1ccc(O)c([C@H](CCN(C(C)C)C(C)C)c2ccccc2)c1 [tolterodine] | 99.9 | 94.4 | 99.9 | 98.7 | 96.1 | 102 | 89.6 | 98.5 | 85.9 | 108 | 115 | 98.5 | 102 | 105 | 92.7 | 99.7 | 94.1 | 88.6 | 88.6 | 95.8 | 105 | 99.8 | 102 | 103 | 96.9 | 0 | 0 | 0 | 0.8 | 0 | > 10 | > 10 | > 10 | > 10 | > 10
CS(=O)(=O)OC[C@H](O)[C@@H](O)COS(C)(=O)=O [treosulfan] | 104 | 94.7 | 103 | 94 | 99.2 | 95.6 | 96.4 | 102 | 90.9 | 99.3 | 93.1 | 93.6 | 94.6 | 108 | 108 | 105 | 104 | 102 | 98.8 | 111 | 92.3 | 100 | 92.5 | 98.2 | 106 | 0 | 0 | 0 | 0 | 0 | > 10 | > 10 | > 10 | > 10 | > 10
CCN(Cc1ccncc1)C(=O)C(CO)c1ccccc1 (stereo not given) [tropicamide] | 91.7 | 98.8 | 95.4 | 99 | 103 | 86.2 | 96.9 | 97.2 | 89.4 | 101 | 106 | 98 | 107 | 91.9 | 97.8 | 98.6 | 90.5 | 101 | 95.9 | 103 | 94.2 | 88.8 | 91.8 | 84.8 | 102 | 0 | 0 | 0 | 0 | 0 | > 10 | > 10 | > 10 | > 10 | > 10
O=C(CCCCCCC(=O)Nc1ccccc1)NO [vorinostat] | 97.4 | 96.3 | 94.9 | 79.5 | 2.2 | 89.9 | 99.9 | 93.9 | 93.9 | 2.5 | 111 | 98.2 | 98.1 | 69.8 | 3 | 96.1 | 96.9 | 87.2 | 62.1 | 20.2 | 99.5 | 99.5 | 103 | 88.9 | 0.3 | 8.7 | 6.3 | 9.7 | 9.1 | 7.3 | 1.7 | 2.66 | 1.37 | 0.91 | 2.25
